{"source": "ChEMBL document CHEMBL5696443", "about": "(Clin Cancer Res, 2016)", "key": {"[1]": {"biological_target": "Calcium/calmodulin-dependent protein kinase type II subunit gamma (Homo sapiens, UniProt Q13555)", "assay": "Inhibition of human CAMK2G using KKLNRTLSFAEPG as substrate in presence of [gamma33P]-ATP by HotSpot assay"}, "[2]": {"biological_target": "Receptor tyrosine-protein kinase erbB-2 (Homo sapiens, UniProt P04626)", "assay": "Inhibition of human ERBB2 using poly (Glu, Tyr)4:1 as substrate in presence of [gamma33P]-ATP by HotSpot assay"}, "[3]": {"biological_target": "Serine/threonine-protein kinase D1 (Homo sapiens, UniProt Q15139)", "assay": "Inhibition of human PRKD1 using KKLNRTLSVA as substrate in presence of [gamma33P]-ATP by HotSpot assay"}, "Ephrin type-A receptor 1": {"biological_target": "Ephrin type-A receptor 1 (Homo sapiens, UniProt P21709)", "assay": "Inhibition of human EPHA1 using poly (Glu, Tyr)4:1 as substrate in presence of [gamma33P]-ATP by HotSpot assay"}, "[4]": {"biological_target": "RAC-beta serine/threonine-protein kinase (Homo sapiens) (UniProt P31751)", "assay": "Inhibition of human AKT2 at 1 uM using KGSGSGRPRTSSFAEG as substrate in presence of [gamma33P]-ATP by HotSpot assay relative to control"}, "[5]": {"biological_target": "Dual specificity protein kinase CLK3 (Homo sapiens) (UniProt P49761)", "assay": "Inhibition of human CLK3 at 1 uM using MBP as substrate in presence of [gamma33P]-ATP by HotSpot assay relative to control"}, "[6]": {"biological_target": "Casein kinase I isoform gamma-3 (Homo sapiens) (UniProt Q9Y6M4)", "assay": "Inhibition of human CSNK1G3 at 1 uM using KRRRAL[pS]VASLPGL as substrate in presence of [gamma33P]-ATP by HotSpot assay relative to control"}, "[7]": {"biological_target": "Dual specificity tyrosine-phosphorylation-regulated kinase 1B (Homo sapiens) (UniProt Q9Y463)", "sequence (Q9Y463 whole entry, looked up)": "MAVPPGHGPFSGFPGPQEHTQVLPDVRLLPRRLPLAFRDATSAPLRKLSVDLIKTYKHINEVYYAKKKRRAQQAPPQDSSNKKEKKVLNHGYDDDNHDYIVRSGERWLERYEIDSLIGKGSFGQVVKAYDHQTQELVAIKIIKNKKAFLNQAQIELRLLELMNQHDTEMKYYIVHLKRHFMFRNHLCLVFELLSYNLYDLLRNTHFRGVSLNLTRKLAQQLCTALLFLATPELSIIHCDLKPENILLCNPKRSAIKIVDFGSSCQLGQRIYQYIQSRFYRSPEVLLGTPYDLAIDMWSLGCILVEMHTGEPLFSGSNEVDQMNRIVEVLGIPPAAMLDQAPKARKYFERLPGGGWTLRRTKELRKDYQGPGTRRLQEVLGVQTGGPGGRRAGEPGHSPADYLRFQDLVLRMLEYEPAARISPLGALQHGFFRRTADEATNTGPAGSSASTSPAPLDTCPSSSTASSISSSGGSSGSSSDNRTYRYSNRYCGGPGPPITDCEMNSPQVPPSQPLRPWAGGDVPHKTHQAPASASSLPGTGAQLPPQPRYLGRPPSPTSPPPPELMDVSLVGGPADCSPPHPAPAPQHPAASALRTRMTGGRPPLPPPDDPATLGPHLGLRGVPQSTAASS", "assay": "Inhibition of human DYRK1B at 1 uM using RRRFRPASPLRGPPK as substrate in presence of [gamma33P]-ATP by HotSpot assay relative to control"}, "[8]": {"biological_target": "Dual specificity tyrosine-phosphorylation-regulated kinase 2 (Homo sapiens) (UniProt Q92630)", "assay": "Inhibition of human DYRK2 at 1 uM using RRRFRPASPLRGPPK as substrate in presence of [gamma33P]-ATP by HotSpot assay relative to control"}, "[9]": {"biological_target": "Dual specificity tyrosine-phosphorylation-regulated kinase 4 (Homo sapiens) (UniProt Q9NR20)", "assay": "Inhibition of human DYRK4 at 1 uM using RRRFRPASPLRGPPK as substrate in presence of [gamma33P]-ATP by HotSpot assay relative to control"}, "[10]": {"biological_target": "G protein-coupled receptor kinase 5 (Homo sapiens) (UniProt P34947)", "assay": "Inhibition of human GRK5 at 1 uM using casein as substrate in presence of [gamma33P]-ATP by HotSpot assay relative to control"}, "[11]": {"biological_target": "Homeodomain-interacting protein kinase 4 (Homo sapiens) (UniProt Q8NE63)", "assay": "Inhibition of human HIPK4 at 1 uM using MBP as substrate in presence of [gamma33P]-ATP by HotSpot assay relative to control"}, "[12]": {"biological_target": "Tyrosine-protein kinase JAK3 (Homo sapiens) (UniProt P52333)", "assay": "Inhibition of human JAK3 at 1 uM using MBP as substrate in presence of [gamma33P]-ATP by HotSpot assay relative to control"}, "[13]": {"biological_target": "Mitogen-activated protein kinase 8 (Homo sapiens) (UniProt P45983)", "sequence (P45983 whole entry)": "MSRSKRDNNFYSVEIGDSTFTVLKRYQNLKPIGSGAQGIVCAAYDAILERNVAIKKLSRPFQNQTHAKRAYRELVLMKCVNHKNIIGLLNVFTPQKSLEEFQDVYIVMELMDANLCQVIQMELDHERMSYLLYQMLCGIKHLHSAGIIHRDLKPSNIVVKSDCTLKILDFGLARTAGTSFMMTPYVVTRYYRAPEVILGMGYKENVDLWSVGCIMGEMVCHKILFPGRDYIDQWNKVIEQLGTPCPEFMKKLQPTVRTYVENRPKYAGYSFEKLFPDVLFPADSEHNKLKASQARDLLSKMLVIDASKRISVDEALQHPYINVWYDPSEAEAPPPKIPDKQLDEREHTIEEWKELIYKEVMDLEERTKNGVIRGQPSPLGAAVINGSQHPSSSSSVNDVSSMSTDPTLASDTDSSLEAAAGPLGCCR", "assay": "Inhibition of human JNK1a1 at 1 uM using ATF2 as substrate in presence of [gamma33P]-ATP by HotSpot assay relative to control"}, "[14]": {"biological_target": "LIM domain kinase 1 (Homo sapiens) (UniProt P53667)", "assay": "Inhibition of human LIMK1 at 1 uM using cofilin as substrate in presence of [gamma33P]-ATP by HotSpot assay relative to control"}, "[15]": {"biological_target": "Mitogen-activated protein kinase kinase kinase 8 (Homo sapiens) (UniProt P41279)", "assay": "Inhibition of human MAP3K8 at 1 uM using MEK1 as substrate in presence of [gamma33P]-ATP by HotSpot assay relative to control"}, "[16]": {"biological_target": "MAP kinase-activated protein kinase 2 (Homo sapiens) (UniProt P49137)", "assay": "Inhibition of human MAPKAPK2 at 1 uM using KKLNRTLSVA as substrate in presence of [gamma33P]-ATP by HotSpot assay relative to control"}, "[17]": {"biological_target": "Hepatocyte growth factor receptor (Homo sapiens, UniProt P08581)", "sequence (P08581 whole entry)": "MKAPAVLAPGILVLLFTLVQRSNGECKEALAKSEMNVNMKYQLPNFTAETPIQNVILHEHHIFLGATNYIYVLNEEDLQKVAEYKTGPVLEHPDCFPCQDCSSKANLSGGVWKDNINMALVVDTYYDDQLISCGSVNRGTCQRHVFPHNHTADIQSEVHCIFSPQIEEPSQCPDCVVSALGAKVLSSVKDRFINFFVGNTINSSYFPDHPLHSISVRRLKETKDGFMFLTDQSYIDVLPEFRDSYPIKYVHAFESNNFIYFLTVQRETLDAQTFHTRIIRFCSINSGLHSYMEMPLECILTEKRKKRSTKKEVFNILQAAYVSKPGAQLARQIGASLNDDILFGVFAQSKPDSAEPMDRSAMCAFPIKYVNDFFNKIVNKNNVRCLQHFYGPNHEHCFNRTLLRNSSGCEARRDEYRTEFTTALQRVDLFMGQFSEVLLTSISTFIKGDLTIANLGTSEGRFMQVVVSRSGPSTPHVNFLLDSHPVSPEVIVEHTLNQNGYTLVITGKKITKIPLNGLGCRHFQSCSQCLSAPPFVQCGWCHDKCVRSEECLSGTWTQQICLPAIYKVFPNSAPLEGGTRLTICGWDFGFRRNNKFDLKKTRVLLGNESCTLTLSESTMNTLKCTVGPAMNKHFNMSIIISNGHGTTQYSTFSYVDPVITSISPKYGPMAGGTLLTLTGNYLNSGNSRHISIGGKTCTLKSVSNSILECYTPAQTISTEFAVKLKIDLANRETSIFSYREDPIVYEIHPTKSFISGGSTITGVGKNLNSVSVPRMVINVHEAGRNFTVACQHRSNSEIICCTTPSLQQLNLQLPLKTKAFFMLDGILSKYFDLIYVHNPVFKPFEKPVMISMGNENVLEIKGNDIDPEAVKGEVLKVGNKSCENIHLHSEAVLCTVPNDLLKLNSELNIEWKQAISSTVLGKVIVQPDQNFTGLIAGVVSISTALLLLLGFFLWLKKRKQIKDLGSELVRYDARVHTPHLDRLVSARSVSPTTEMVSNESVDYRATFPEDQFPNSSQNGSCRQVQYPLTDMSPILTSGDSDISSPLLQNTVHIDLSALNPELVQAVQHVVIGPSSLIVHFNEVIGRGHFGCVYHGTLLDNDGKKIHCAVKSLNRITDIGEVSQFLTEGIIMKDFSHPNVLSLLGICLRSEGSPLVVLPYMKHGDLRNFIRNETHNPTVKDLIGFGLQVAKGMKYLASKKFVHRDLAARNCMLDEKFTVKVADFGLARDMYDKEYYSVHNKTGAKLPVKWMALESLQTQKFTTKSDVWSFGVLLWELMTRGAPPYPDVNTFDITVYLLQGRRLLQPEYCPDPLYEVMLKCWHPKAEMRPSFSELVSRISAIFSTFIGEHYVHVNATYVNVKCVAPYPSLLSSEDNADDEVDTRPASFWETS", "assay": "Inhibition of human MET at 1 uM using poly (Glu, Tyr)4:1 as substrate in presence of [gamma33P]-ATP by HotSpot assay relative to control"}, "Homo sapiens": {"species": "Homo sapiens", "assay": "Inhibition of human PKA at 1 uM using LCGRTGRRNSI as substrate in presence of [gamma33P]-ATP by HotSpot assay relative to control"}, "[18]": {"biological_target": "Protein kinase C alpha type (Homo sapiens) (UniProt P17252)", "assay": "Inhibition of human PRKCA at 1 uM using ERMRPRKRQGSVRRRV as substrate in presence of [gamma33P]-ATP by HotSpot assay relative to control"}, "[19]": {"biological_target": "Protein kinase C beta type (Homo sapiens) (UniProt P05771)", "assay": "Inhibition of human PRKCB at 1 uM using ERMRPRKRQGSVRRRV as substrate in presence of [gamma33P]-ATP by HotSpot assay relative to control"}, "[20]": {"biological_target": "Serine/threonine-protein kinase Sgk3 (Homo sapiens) (UniProt Q96BR1)", "sequence (Q96BR1 whole entry)": "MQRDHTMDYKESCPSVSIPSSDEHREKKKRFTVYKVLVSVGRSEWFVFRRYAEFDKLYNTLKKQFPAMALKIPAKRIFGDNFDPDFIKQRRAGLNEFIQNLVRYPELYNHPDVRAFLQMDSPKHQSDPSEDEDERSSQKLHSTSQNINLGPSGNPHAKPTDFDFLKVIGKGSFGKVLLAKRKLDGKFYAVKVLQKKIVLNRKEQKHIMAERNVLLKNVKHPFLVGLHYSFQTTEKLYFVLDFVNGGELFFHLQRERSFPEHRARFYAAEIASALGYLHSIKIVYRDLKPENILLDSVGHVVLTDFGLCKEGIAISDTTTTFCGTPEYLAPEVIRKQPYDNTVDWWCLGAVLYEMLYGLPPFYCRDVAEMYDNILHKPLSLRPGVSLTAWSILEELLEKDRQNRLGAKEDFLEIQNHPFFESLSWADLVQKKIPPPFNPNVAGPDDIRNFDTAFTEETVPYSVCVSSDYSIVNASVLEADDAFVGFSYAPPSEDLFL", "assay": "Inhibition of human SGK3 at 1 uM using GRPRTSSFAEG as substrate in presence of [gamma33P]-ATP by HotSpot assay relative to control"}, "[21]": {"biological_target": "SRSF protein kinase 2 (Homo sapiens) (UniProt P78362)", "assay": "Inhibition of human SRPK2 at 1 uM using GRSRSRSRSR as substrate in presence of [gamma33P]-ATP by HotSpot assay relative to control"}, "[22]": {"assay": "Average plasma concentration in CB-17/SCID mouse at 25 mg/kg administered once a day for 4 days by LC-MS/MS analysis", "assay_type": "ADME, organism-based", "conditions": "in vivo, 96 h, time 4 day"}, "[23]": {"test_system": "Epidermal growth factor receptor (Homo sapiens), P00533 [UNDEFINED MUTATION]", "sequence (P00533 whole entry, looked up, change not shown)": "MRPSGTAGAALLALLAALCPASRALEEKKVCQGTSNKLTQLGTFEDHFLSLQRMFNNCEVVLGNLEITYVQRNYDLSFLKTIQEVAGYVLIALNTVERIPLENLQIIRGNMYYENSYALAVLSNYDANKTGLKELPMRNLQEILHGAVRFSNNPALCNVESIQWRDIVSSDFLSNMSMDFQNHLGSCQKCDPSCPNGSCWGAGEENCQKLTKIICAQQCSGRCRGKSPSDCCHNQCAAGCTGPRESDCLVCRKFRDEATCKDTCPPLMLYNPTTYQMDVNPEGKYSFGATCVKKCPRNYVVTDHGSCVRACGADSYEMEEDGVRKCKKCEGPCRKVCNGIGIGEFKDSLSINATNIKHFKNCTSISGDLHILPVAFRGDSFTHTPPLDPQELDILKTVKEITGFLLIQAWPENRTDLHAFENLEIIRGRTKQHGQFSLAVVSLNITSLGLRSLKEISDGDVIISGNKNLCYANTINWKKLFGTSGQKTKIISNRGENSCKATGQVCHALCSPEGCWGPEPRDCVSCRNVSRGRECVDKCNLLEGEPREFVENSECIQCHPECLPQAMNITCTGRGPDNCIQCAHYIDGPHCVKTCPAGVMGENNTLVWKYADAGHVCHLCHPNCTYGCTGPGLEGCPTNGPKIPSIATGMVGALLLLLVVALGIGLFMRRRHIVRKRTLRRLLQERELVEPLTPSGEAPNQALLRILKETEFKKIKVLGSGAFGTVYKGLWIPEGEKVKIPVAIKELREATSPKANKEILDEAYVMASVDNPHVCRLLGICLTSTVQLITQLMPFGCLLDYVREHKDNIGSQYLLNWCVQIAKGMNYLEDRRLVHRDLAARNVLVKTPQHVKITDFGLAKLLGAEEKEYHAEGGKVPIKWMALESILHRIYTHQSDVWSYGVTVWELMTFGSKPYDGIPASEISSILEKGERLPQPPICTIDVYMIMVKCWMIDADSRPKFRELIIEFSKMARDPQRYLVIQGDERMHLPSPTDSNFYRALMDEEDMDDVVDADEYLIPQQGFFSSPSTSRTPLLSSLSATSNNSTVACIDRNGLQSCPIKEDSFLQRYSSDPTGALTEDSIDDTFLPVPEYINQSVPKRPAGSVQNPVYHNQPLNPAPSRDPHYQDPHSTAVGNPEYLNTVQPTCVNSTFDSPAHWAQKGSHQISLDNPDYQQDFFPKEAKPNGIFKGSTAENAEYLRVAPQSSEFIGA", "conditions": "BaF3, time 72.0 hrs"}, "[24]": {"test_system": "EML4-ALK (Homo sapiens), Q9UM73+Q9HC35 [L1152R]", "conditions": "BaF3, time 3-5 weeks"}, "[25]": {"test_system": "EML4-ALK (Homo sapiens), Q9UM73+Q9HC35 [L1196M]", "conditions": "BaF3, dose 200.0 nmol/L, time 3-5 weeks"}, "[26]": {"test_system": "EML4-ALK (Homo sapiens), Q9UM73+Q9HC35 [S1206F]", "conditions": "BaF3, dose 500.0 nmol/L, time 3-5 weeks"}, "cells": {"assay": "cells", "conditions": "Homo sapiens, BaF3, 72 h"}}, "note": "Activity calls are given as the source filed them. No cut-off for these calls is given here."}
{"compound": "COc1cc(N2CCC(N3CCN(C)CC3)CC2)ccc1Nc1ncc(Cl)c(Nc2ccccc2P(C)(C)=O)n1", "note": "[BRIGATINIB]", "values": [{"measurement": "IC50", "setting": "[1]", "result": 48, "unit": "nM"}, {"measurement": "IC50", "setting": "[2]", "result": 42, "unit": "nM"}, {"measurement": "IC50", "setting": "[3]", "result": 197, "unit": "nM"}, {"measurement": "IC50", "setting": "Ephrin type-A receptor 1", "result": "> 1000", "unit": "nM"}, {"measurement": "inhibition", "setting": "[4]", "result": "< 90", "unit": "%"}, {"measurement": "inhibition", "setting": "[5]", "result": "< 90", "unit": "%"}, {"measurement": "inhibition", "setting": "[6]", "result": "< 90", "unit": "%"}, {"measurement": "inhibition", "setting": "[7]", "result": "< 90", "unit": "%"}, {"measurement": "inhibition", "setting": "[8]", "result": "< 90", "unit": "%"}, {"measurement": "inhibition", "setting": "[9]", "result": "< 90", "unit": "%"}, {"measurement": "inhibition", "setting": "[10]", "result": "< 90", "unit": "%"}, {"measurement": "inhibition", "setting": "[11]", "result": "< 90", "unit": "%"}, {"measurement": "inhibition", "setting": "[12]", "result": "< 90", "unit": "%"}, {"measurement": "inhibition", "setting": "[13]", "result": "< 90", "unit": "%"}, {"measurement": "inhibition", "setting": "[14]", "result": "< 90", "unit": "%"}, {"measurement": "inhibition", "setting": "[15]", "result": "< 90", "unit": "%"}, {"measurement": "inhibition", "setting": "[16]", "result": "< 90", "unit": "%"}, {"measurement": "inhibition", "setting": "[17]", "result": "< 90", "unit": "%"}, {"measurement": "inhibition", "setting": "Homo sapiens", "result": "< 90", "unit": "%"}, {"measurement": "inhibition", "setting": "[18]", "result": "< 90", "unit": "%"}, {"measurement": "inhibition", "setting": "[19]", "result": "< 90", "unit": "%"}, {"measurement": "inhibition", "setting": "[20]", "result": "< 90", "unit": "%"}, {"measurement": "inhibition", "setting": "[21]", "result": "< 90", "unit": "%"}, {"measurement": "Cave", "setting": "[22]", "result": 844, "unit": "nM"}, {"measurement": "IC90", "setting": "[23]", "result": 2460, "unit": "nM"}, {"measurement": "IC90", "setting": "[24]", "result": 34, "unit": "nM"}, {"measurement": "inhibition", "setting": "[25]", "result": "inactive"}, {"measurement": "inhibition", "setting": "[26]", "result": "Active"}, {"measurement": "IC50", "setting": "cells", "result": 17, "unit": "nM"}]}
